Laboratory results as given in patent US9944600B2, “Piperidine derivatives for GPR119 agonist” (CHONG KUN DANG PHARMACEUTICAL CORP., priority 2012, dated 2018).

Biological target: T1, human GPR119 receptor (Homo sapiens, UniProt Q8TDV5)
T1 construct: host or cells: GeneBLAzer T-Rex GPR 119 CHO-K1 DA cells (CHO-K1)
T1 sequence (Q8TDV5 1-335): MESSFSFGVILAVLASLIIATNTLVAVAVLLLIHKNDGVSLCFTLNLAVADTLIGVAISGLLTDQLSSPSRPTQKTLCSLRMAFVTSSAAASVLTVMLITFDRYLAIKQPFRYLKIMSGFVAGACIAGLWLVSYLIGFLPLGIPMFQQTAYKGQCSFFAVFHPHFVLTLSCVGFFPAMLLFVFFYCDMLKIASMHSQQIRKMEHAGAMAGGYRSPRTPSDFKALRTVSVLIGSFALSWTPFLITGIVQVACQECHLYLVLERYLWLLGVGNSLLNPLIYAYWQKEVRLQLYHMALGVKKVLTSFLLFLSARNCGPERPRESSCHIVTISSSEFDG
Assay: Activity test for human GPR119 receptor (GeneBLAzer T-Rex GPR 119 CHO-K1 DA cells, fluorescence reporter)
Type: cell-based
Details: human GPR119 CHO-K1 reporter cells, 5 hours treatment, ratio to vehicle control well, read-out: % Activation; for activity at 0.1 µM: test compound conc. 0.1 μM; for activity at 1 µM: test compound conc. 1 μM; for activity at 10 µM: test compound conc. 10 μM
Procedure: As a human GPR119 receptor expression cell for this test, the cell line “GeneBLAzer™ T-Rex GPR 119 CHO-K1 DA cells” that is commercially available from Invitrogen, was used. The cell was incubated in the DMEM media containing 1% dialyzed fetal bovine serum etc. The cell incubator was kept at constant temperature and constant humidity of 37° C., 5% CO2.
The human GPR119 receptor expressing cell was used to this test. Each of test compounds was added to be final concentrations of 0.1, 1, 10 μM in 96 well and tested in duplicate. A fixed amount of cell was added to each well of 96 well separately, and then treated with the test compound for 5 hours. After treatment of color development agent for 2 hours, the fluorescence value was determined with plate reader. To the luminous wavelength of control well, which was not treated with the agonist sample, but in which only a vehicle (i.e., cell) was contained, the ratio of the luminous wavelength of test well, which was treated with the agonist sample, was calculated, and then converted to obtain % value.
All the results were expressed as mean±SD, and each test groups and the control group were compared using student's t-test to adjudge the effects of each test groups.

Row | SMILES | activity at 0.1 µM [%] | activity at 1 µM [%] | activity at 10 µM [%]
1 | CCC(F)(CC)CN1CCC(COc2cnc(-c3ccc(C(=O)N4CCCC[C@@H]4C(N)=O)c(F)c3)nc2)CC1 [Compound 1055, (R)-1-(4-(5-((1-(2-ethyl-2-fluorobutyl)piperidin-4-yl)methoxy)pyrimidin-2-yl)-2-fluorobenzoyl)piperidine-2-carboxamide] | 407 | 474 | 408
2 | CC(C)(F)CN1CCC(COc2ccc(-c3ccc(C(=O)N4CCC(F)(F)C4)cc3)cc2)CC1 [Compound 629, (3,3-difluoropyrrolidine-1-yl)(4′-((1-(2-fluoro-2-methylpropyl)piperidin-4-yl)methoxy)biphenyl-4-yl)methanone] | 199 | 229 | 269
3 | CC(C)(F)CN1CCC(COc2ccc(-c3ccc(C(=O)N4CCC[C@@H]4CO)cc3)cc2)CC1 [Compound 555, (R)-(4′-((1-(2-fluoro-2-methylpropyl)piperidin-4-yl)methoxy)biphenyl-4-yl)(2-(hydroxymethyl)pyrrolidine-1-yl)methanone] | 190 | 269 | 272
4 | CC(C)(CN1CCC(COc2ccc(-c3ccc(C(=O)N4CCC[C@@H](O)C4)cc3)cn2)CC1)C(F)(F)F [Compound 829, (R)-(3-hydroxypiperidin-1-yl)(4-(6-((1-(3,3,3-trifluoro-2,2-dimethylpropyl)piperidin-4-yl)methoxy)pyridin-3-yl)phenyl)methanone] | 257 | 313 | 303
5 | CN(CCO)C(=O)c1ccc(-c2ccc(OCC3CCN(CC(C)(C)F)CC3)cc2)cc1 [Compound 551, 4′-((1-(2-fluoro-2-methylpropyl)piperidin-4-yl)methoxy)-N-(2-hydroxyethyl)-N-methylbiphenyl-4-carboxamide] | 135 | 232 | 288
6 | O=C(c1ccc(-c2ccc(OCC3CCN(CC4(C(F)(F)F)CCC4)CC3)nc2)cc1F)N1CC[C@H](O)C1 [Compound 720, (8)-(2-fluoro-4-(6-((1-((1-(trifluoromethyl)cyclobutyl)methyl)piperidin-4-yl)methoxy)pyridine-3-yl)phenyl)(3-hydroxypyrrolidine-1-yl)methanone] | 160 | 228 | 262
7 | NC(=O)[C@@H]1CCCN1C(=O)c1ccc(-c2ccc(OCC3CCN(CC4(C(F)(F)F)CCC4)CC3)c(F)c2)cc1 [Compound 837, (S)-1-(3′-fluoro-4′-((1-((1-(trifluoromethyl)cyclobutyl)methyl)piperidin-4-yl)methoxy)biphenylcarbonyl)pyrrolidine-2-carboxamide] | 251 | 296 | 306
8 | NC(=O)[C@H]1CCCCN1C(=O)c1ccc(-c2ccc(OCC3CCN(CC4(C(F)(F)F)CCC4)CC3)c(F)c2)cc1 [Compound 886, (R)-1-(3′-fluoro-4′-((1-((1-(trifluoromethyl)cyclobutyl)methyl)piperidin-4-yl)methoxy)biphenylcarbonyl)piperidin-2-carboxamide] | 164 | 241 | 246
9 | CC(C)(F)CN1CCC(COc2ccc(-c3ccc(C(=O)N4CCC[C@@H]4CO)c(F)c3)cc2)CC1 [Compound 641, (R)-(3-fluoro-4′-((1-(2-fluoro-2-methylpropyl)piperidin-4-yl)methoxy)biphenyl-4-yl)(2-(hydroxymethyl)pyrrolidine-1-yl)methanone] | 167 | 220 | 246
10 | NC(=O)[C@@H]1CCCN1C(=O)c1ccc(-c2ccc(OCC3CCN(CC4(C(F)(F)F)CCC4)CC3)cc2)cc1 [Compound 635, (S)-1-(4′-((1-((1-(trifluoromethyl)cyclobutyl)methyl)piperidin-4-yl)methoxy)biphenylcarbonyl)pyrrolidine-2-carboxamide] | 265 | 305 | 239
11 | CC(C)(F)CN1CCC(COc2ccc(-c3ccc(C(=O)N4CC[C@H](O)C4)cc3)cc2)CC1 [Compound 554, (S)-(4′-((1-(2-fluoro-2-methylpropyl)piperidin-4-yl)methoxy)biphenyl-4-yl)(3-hydroxypyrrolidine-1-yl)methanone] | 141 | 219 | 279
12 | CC(C)(F)CN1CCC(COc2ccc(-c3ccc(C(=O)N4CC[C@@H](O)C4)cc3)cc2)CC1 [Compound 553, (R)-(4′-((1-(2-fluoro-2-methylpropyl)piperidin-4-yl)methoxy)biphenyl-4-yl)(3-hydroxypyrrolidine-1-yl)methanone] | 149 | 204 | 253
13 | CC(C)(F)CN1CCC(COc2ccc(-c3ccc(C(=O)N4CCC[C@H]4C(N)=O)c(F)c3)cc2)CC1 [Compound 644, (S)-1-(3-fluoro-4′-((1-(2-fluoro-2-methylpropyl)piperidin-4-yl)methoxy)biphenylcarbonyl)pyrrolidine-2-carboxamide] | 213 | 295 | 294
14 | CCC(F)(CC)CN1CCC(COc2ccc(-c3ccc(C(=O)N4CCC[C@H]4C(N)=O)c(F)c3)cc2C#N)CC1 [Compound 1000, (S)-1-(3′-cyano-4′-((1-(2-ethyl-2-fluorobutyl)piperidin-4-yl)methoxy)-3-fluorobiphenylcarbonyl)pyrrolidine-2-carboxamide] | 311 | 367 | 374
15 | CCC(F)(CC)CN1CCC(COc2ccc(-c3ccc(C(=O)N4CCC[C@H]4C(N)=O)cc3F)cc2C#N)CC1 [Compound 1119, (S)-1-(3′-cyano-4′-((1-(2-ethyl-2-fluorobutyl)piperidin-4-yl)methoxy)-2-fluorobiphenylcarbonyl)pyrrolidine-2-carboxamide] | 406 | 428 | 482
16 | NC(=O)[C@@H]1CCCN1C(=O)c1ccc(-c2ccc(OCC3CCN(CC4(C(F)(F)F)CCC4)CC3)nc2)cc1F [Compound 722, (S)-1-(2-fluoro-4-(6-((1-((1-(trifluoromethyl)cyclobutyl)methyl)piperidin-4-yl)methoxy)pyridine-3-yl)benzoyl)pyrrolidine-2-carboxamide] | 198 | 269 | 261
17 | NC(=O)[C@@H]1CCCN1C(=O)c1ccc(-c2cnc(OCC3CCN(CC4(C(F)(F)F)CCC4)CC3)cn2)cc1 [Compound 1009, (S)-1-(4-(5-((1-((1-(trifluoromethyl)cyclobutyl)metb.yl)piperidin-4-yl)methoxy)pyrazine-2-yl)benzoyl)pyrrolidine-2-carboxamide] | 235 | 314 | 340
18 | CS(=O)(=O)c1ccc(-c2ccc(OCC3CCN(CC4(C(F)(F)F)CCC4)CC3)cc2)cc1 [Compound 542, 4-((4′-(methylsulfonyl)biphenyl-4-yloxy)methyl)-1-((1-(trifluoromethyl)cyclobutyl)methyl)piperidine] | 256 | 347 | 376
